Measurements: patent US7547728B2, “Treating muscle wasting with selective androgen receptor modulators” (priority 2001, dated 2009)
Where two headings read alike, the source gives them in different places.

Columns and labels:
levator ani muscle = test: Anabolic activity: levator ani muscle weight in male rats; format: in vivo, rat; settings: for Levator ani muscle weight compared with intact controls: castrated male rats, 0.1-1 mg/day (FIG. 7); for ED50 / Emax (% of Intact Control) / Relative Afficacy / Relative Potency: levator ani muscle; for ED50 / Emax (% of Intact Control): dose response 0.1-1.0 mg/day; for Relative Afficacy / Relative Potency: relative to TP
Text: (§1) Male Sprague-Dawley rats were purchased from Harlan Biosciences (Indianapolis, Ind.). […] One day before the initiation of drug treatment, groups 4 through 6 and groups 7 through 9 received unilateral or bilateral orchidectomy, respectively, via a midline scrotal incision. […] All drugs given to animals were freshly prepared as solutions in polyethylene glycol 300 (PEG 300). Groups 4 and 7 received treatment with vehicle alone (i.e., PEG 300). […] The ventral prostates, seminal vesicles, and levator ani muscle were removed and weighed. Osmotic pumps were also removed from animals to check for correct pump operation. […] Statistical analyses of parameters from complete blood count or serum chemical profiling, wherever applicable, were performed by single-factor ANOVA with the alpha value set a priori at p<0.05.

androgen receptor = biological target: T1, androgen receptor (Rattus norvegicus, UniProt P15207); test: biochemical; format: binding; settings: for RBA (%): relative binding affinity
T1 construct: from tissue
T1 sequence (P15207 1-902): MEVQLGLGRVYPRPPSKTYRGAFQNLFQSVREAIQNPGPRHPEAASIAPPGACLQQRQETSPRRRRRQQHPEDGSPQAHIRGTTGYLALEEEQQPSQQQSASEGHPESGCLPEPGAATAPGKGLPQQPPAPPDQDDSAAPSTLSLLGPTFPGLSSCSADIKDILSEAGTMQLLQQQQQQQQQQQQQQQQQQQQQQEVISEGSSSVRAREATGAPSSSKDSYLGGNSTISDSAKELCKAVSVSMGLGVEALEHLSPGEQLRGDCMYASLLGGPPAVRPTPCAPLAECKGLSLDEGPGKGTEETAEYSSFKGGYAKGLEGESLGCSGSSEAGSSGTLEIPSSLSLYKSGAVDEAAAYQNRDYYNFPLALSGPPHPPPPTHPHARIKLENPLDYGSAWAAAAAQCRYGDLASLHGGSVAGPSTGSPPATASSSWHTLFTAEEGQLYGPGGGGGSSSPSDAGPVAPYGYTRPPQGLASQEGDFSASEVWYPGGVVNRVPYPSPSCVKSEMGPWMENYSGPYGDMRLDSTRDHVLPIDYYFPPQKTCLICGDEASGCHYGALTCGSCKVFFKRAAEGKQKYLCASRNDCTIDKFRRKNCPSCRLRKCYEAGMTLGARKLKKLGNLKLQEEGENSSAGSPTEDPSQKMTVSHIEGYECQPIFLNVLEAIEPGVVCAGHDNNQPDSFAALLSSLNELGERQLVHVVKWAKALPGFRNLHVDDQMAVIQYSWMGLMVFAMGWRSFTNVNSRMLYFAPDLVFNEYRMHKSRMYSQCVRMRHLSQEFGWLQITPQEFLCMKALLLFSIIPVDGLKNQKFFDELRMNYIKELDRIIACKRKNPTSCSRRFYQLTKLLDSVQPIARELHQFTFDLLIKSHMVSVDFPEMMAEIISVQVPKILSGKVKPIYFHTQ

seminal vesicles = test: Androgenic activity: seminal vesicle weight in male rats; format: in vivo, rat; settings: for ED50 / Emax (% of Intact Control) / Relative Afficacy / Relative Potency: seminal vesicle; for ED50 / Emax (% of Intact Control) / Seminal Vesicles weight: castrated rats; for ED50 / Emax (% of Intact Control): dose response 0.1-1.0 mg/day; for Relative Afficacy / Relative Potency: relative to TP; for Agonist character in seminal vesicles: male rats, from organ weights
Text: as §1

prostate = test: Androgenic activity: prostate weight in male rats; format: in vivo, rat; settings: for Agonist character in prostate: male rats, from organ weights
Text: as §1

levator ani = test: Levator ani evaluation in androgen-treated intact female rats; format: in vivo, rat; settings: 14 and 28 days treatment
Text: In these same rats, the levator ani was dissected and evaluated for the expression pattern of MHC family members. […] Physiol. 75(5): 2337-2340, 1993].

MHC IIb mRNA = MHC IIb mRNA expression in masseter and gastrocnemius muscle of intact male rats; settings: TP 5 mg/kg/day, Compound V 1 mg/kg/day
MHC II b mRNA = test: MHC IIb mRNA expression by RT-PCR in masseter muscle of intact female rats; format: in vivo, rat
Procedure: Rat muscle tissue was harvested in 5 volumes of RNA later solution (Ambion, cat.# 7020) and stored at 4° C. until used for RNA isolation. Total RNA was isolated in the FastPrep FP120 instrument (Qbiogene) using RNAqueous-4PCR kit (Ambion, cat # 1914) in combination with FastRNA green tubes (Qbiogene, cat.# 6040-600) at settings for time at 45 sec and speed at 6.5.1 ug of total RNA was used for reverse transcription using Retroscript kit (Ambion, cat# 1710). The mixture was incubated at 42° C. for 60 min, followed by 10 min at 92° C., and then chilled on ice and used in PCR reaction.
Relatively quantitative RT-PCR was used to analyze expression of MHC mRNA in rat musculus masseter (MM) and levator ani (LA). As an internal standard 18S ribosomal RNA was used (QuantumRNA classic 18S Internal Standard, Ambion, cat.# 1716). Linear range of PCR reaction for all primers as well as optimal ratio of 18S primers to competitors to achieve the same level of amplification as the genes of interest was determined.
Primers were obtained from IDT based on the recently published design (Wright et al., J. Appl. Phys. 1997;83:1389), with the following sequence: 5′[…]3′. […]
5 units of Taq DNA polymerase (Roche, cat# 1146165), 200 μM of each dNTP (Invitrogen, cat.#R725-01), 0.2 μM each MHC primer (IDT), 1 μl of cDNA from reverse transcription reaction and 4 μl of 18S primers: competitors mixture were used in 50 μl PCR reaction. […] PCR products were analyzed by agarose gel electrophoresis [20-μl aliquots of a 50-μl PCR reaction loaded on a 1.5% agarose gel (in 1× Tris-Acetate-EDTA buffer) containing 0.2 μg/ml ethidium bromide] to visualize the PCR products. […] Pictures were scanned and the volume of the optical density (OD) of a DNA band was determined by the Image Quant software (Molecular Dynamics), and the background was subtracted (so local background was directly proportional to the amount of DNA over a wide range). […] The content of each experimental group MHC gene was calculated as a percentage of the MHC value in the control group (Table 2).

[1] = castrated rats, 1 mg/day, daily injection
[2] = prostate, castrated rats, dose response 0.1-1.0 mg/day

C[C@](O)(COc1ccc(I)cc1)C(=O)Nc1ccc([N+](=O)[O-])c(C(F)(F)F)c1 [Compound IX]
Levator ani muscle weight compared with intact controls (levator ani muscle): close to those of the intact controls
RBA (%) (androgen receptor): 2.7%

C[C@](O)(COc1ccc(Br)cc1)C(=O)Nc1ccc([N+](=O)[O-])c(C(F)(F)F)c1 [Compound VIII]
Levator ani muscle weight compared with intact controls (levator ani muscle): close to those of the intact controls
RBA (%) (androgen receptor): 5.3%

C[C@](O)(COc1ccc(Cl)cc1)C(=O)Nc1ccc([N+](=O)[O-])c(C(F)(F)F)c1 [Compound VII]
Levator ani muscle weight compared with intact controls (levator ani muscle): exceeding those of intact controls

C[C@](O)(COc1ccc(F)cc1)C(=O)Nc1ccc([N+](=O)[O-])c(C(F)(F)F)c1 [Compound VI]
Levator ani muscle weight compared with intact controls (levator ani muscle): close to those of the intact controls
ED50 (levator ani muscle; castrated rats): 0.44 ± 0.01 mg/day
Emax (% of Intact Control) (levator ani muscle; castrated rats): 74.9 ± 0.4 % of Intact Control
Relative Afficacy (levator ani muscle): 0.72
Relative Potency (levator ani muscle): 0.34
ED50 (seminal vesicles): 0.38 ± 0.26 mg/day
Emax (% of Intact Control) (seminal vesicles): 12.7 ± 3.1 % of Intact Control
Relative Afficacy (seminal vesicles): 0.18
Relative Potency (seminal vesicles): 0.32

C[C@](O)(COc1c(F)c(F)c(F)c(F)c1F)C(=O)Nc1ccc([N+](=O)[O-])c(C(F)(F)F)c1 [Compound XII]
Levator Ani Muscle weight (levator ani muscle; castrated rats, 1 mg/day via osmotic pump): 122.5±10.4 % of intact
Seminal Vesicles weight (seminal vesicles; 1 mg/day, daily injection): 7.2 ± 0.9 % of intact
Agonist character in seminal vesicles (seminal vesicles): weak partial agonist
RBA (%) (androgen receptor): 13.3%
Prostate weight (prostate; [1]): 7.2 ± 1.4 % of intact
Agonist character in prostate (prostate): weak partial agonist

C[C@](O)(COc1ccc(F)c(F)c1)C(=O)Nc1ccc([N+](=O)[O-])c(C(F)(F)F)c1 [Compound XI]
Seminal Vesicles weight (seminal vesicles; 1 mg/day, daily injection): 23.6 ± 8.8 % of intact
Agonist character in seminal vesicles (seminal vesicles): weak partial agonist
Ki (androgen receptor): 3.4 ± 0.56 nM
Prostate weight (prostate; [1]): 33.1 ± 8.5 % of intact
Agonist character in prostate (prostate): weak partial agonist

C[C@](O)(COc1ccc(F)cc1)C(=O)Nc1ccc(C#N)c(C(F)(F)F)c1 [Compound X]
Levator Ani weight (levator ani muscle; castrated rats, 0.10 mg/day): 54.9 ± 5.77 % of intact
Levator Ani weight (levator ani muscle; castrated rats, 0.50 mg/day): 55.0 ± 9.23 % of intact
Levator Ani weight (levator ani muscle; castrated rats, 0.75 mg/day): 68.9 ± 8.46 % of intact
Levator Ani weight (levator ani muscle; castrated rats, 1.00 mg/day): 75.2±9.51 % of intact
Seminal Vesicles weight (seminal vesicles; 0.10 mg/day): 8.8 ± 1.18 % of intact
Seminal Vesicles weight (seminal vesicles; 0.50 mg/day): 9.3 ± 1.57 % of intact
Seminal Vesicles weight (seminal vesicles; 0.75 mg/day): 9.8 ± 3.65 % of intact
Seminal Vesicles weight (seminal vesicles; 1.00 mg/day): 10.7±0.91 % of intact
Agonist character in seminal vesicles (seminal vesicles): weak partial agonist
Prostate weight (prostate; castrated rats, 0.10 mg/day): 6.4 ± 0.82 % of intact
Prostate weight (prostate; castrated rats, 0.50 mg/day): 6.2 ± 0.56 % of intact
Prostate weight (prostate; castrated rats, 0.75 mg/day): 7.6 ± 0.74 % of intact
Prostate weight (prostate; castrated rats, 1.00 mg/day): 8.7±1.39 % of intact
Agonist character in prostate (prostate): weak partial agonist

CCC(=O)O[C@H]1CC[C@H]2[C@@H]3CCC4=CC(=O)CC[C@]4(C)[C@H]3CC[C@]12C [TP, testosterone propionate, reference compound]
ED50 (levator ani muscle; castrated rats): 0.15 ± 0.03 mg/day
Emax (% of Intact Control) (levator ani muscle; castrated rats): 104.2 ± 10.1 % of Intact Control
Relative Afficacy (levator ani muscle): 1.00
Relative Potency (levator ani muscle): 1.00
ED50 (seminal vesicles): 0.12 ± 0.02 mg/day
Emax (% of Intact Control) (seminal vesicles): 70.0 ± 18.8 % of Intact Control
Relative Afficacy (seminal vesicles): 1.00
Relative Potency (seminal vesicles): 1.00
Presence of levator ani muscle after treatment (levator ani): had a muscle present in the location expected for the levator ani
MHC type IIb transcription, % of untreated control (MHC IIb mRNA; gastrocnemius muscle): 139(±47) %
MHC type IIb transcription, % of untreated control (MHC IIb mRNA; masseter muscle): 120(±14) %
MHC IIb expression, % of untreated control (MHC II b mRNA): 141.5%
MHC IIb expression, % of untreated control (MHC II b mRNA; listed as testosterone propionate): 142%
ED50 (prostate; [2]): 0.13 ± 0.03 mg/day
Emax (% of Intact Control) (prostate; [2]): 120.6 ± 13.4 % of Intact Control
Relative Afficacy (prostate; prostate, relative to TP): 1.00
Relative Potency (prostate; prostate, relative to TP): 1.00
